Results from article PMC6031733, “Adding a C-terminal Cysteine (CTC) Can Enhance the Bactericidal Activity of Three Different Antimicrobial Peptides” (Frontiers in Microbiology, 2018).
Read-outs that look alike come from different tables or passages of the source. Positions of bridges follow the written chain, without caps; N, C: chain ends. Non-standard residues stand in square brackets, D forms with d. Residues, ends and D or L forms follow the SMILES beside them. No end group written: not given here. *: point of attachment. X1 = CC[C@H](C)CCCCC(=O)*; Dab = NCC[C@H](N)C(=O)O

Tests used:
[1] = tested on: A. baumannii ATCC17978; details: A. baumannii ATCC17978 strain
Description: (§1) Peptides were diluted in the same buffer. […] All peptides were tested in triplicate. […] Peptides were also diluted in MH broth. […] All peptides were tested in duplicate.

[2] = tested on: colistin-resistant A. baumannii TCGH 46709; assay: Mouse lung infection model, survival; type: in vivo; details: C57BL/6JNarl mice, i.t. A. baumannii TCGH 46709 3.5 × 10^8 CFU/mouse, three consecutive days, 16 mice/group, 3 days
Description: (§2) We determined the in vivo protection efficacy of peptides in two different mouse infection models. In the mouse sepsis model ([Chen et al., 2016]), 3-week-old male ICR mice (∼20 g) were purchased from BioLASCO (Taiwan). These mice were inoculated intraperitoneally with S. aureus ATCC 19636 (4 × 10^6 CFU/mouse). At 2 h post-inoculation, the mice were randomly separated into 5 groups and received peptides (5 or 10 mg/kg) or the PBS control, respectively. Each group contained 5 mice. Mortality was monitored daily for 7 days following the bacterial inoculation. This experiment was repeated twice. In the mouse lung infection model ([Yang et al., 2016]), 6–8-week-old male C57BL/6JNarl mice (∼27 g) were purchased from National Laboratory Animal Center, Taiwan. The inoculums (3.5 × 10^8 CFU/mouse) were prepared by 1:1 mixing of LB culture and 10% mucin (Sigma). All mice were randomly separated into 3 groups and anesthetized by Isoflurane via inhalation, and inoculated intra-tracheally with colistin-resistant A. baumannii TCGH 46709. Two hours after inoculation, the mice were intraperitoneally injected daily with either colistin (5 mg/kg) ([Fishbain and Peleg, 2010]) or HBcARD derivative peptides (5 or 10 mg/kg), respectively, for three consecutive days. Each group contained 8 mice. Mortality was monitored every 12 h following the bacterial inoculation. This experiment was repeated twice.
C57BL/6JNarl mice (∼27 g) were anesthetized and intra-tracheally inoculated with A. baumannii (3.5 × 10^8 CFU/mouse). At 2 h post-inoculation, the mice received i.p. injection of either D-150-177C or colistin, respectively, for three consecutive days (1 injection per day).

[3] = tested on: S. aureus ATCC19636; type: cell-based, Staphylococcus aureus; details: for MBC: pH 7.2
Description: as §1

[4] = tested on: S. aureus ATCC25923; assay: Minimum bactericidal concentration (MBC); type: cell-based, Staphylococcus aureus; details: phosphate buffer pH 7.2, 37°C, 3 h, zero colony, triplicate
Description: as §1

[5] = tested on: S. aureus ATCC29213; assay: Minimum bactericidal concentration (MBC); type: cell-based, Staphylococcus aureus; details: phosphate buffer pH 7.2, 37°C, 3 h, zero colony, triplicate
Description: as §1

[6] = tested on: P. aeruginosa ATCC9027; type: cell-based, Pseudomonas aeruginosa
Description: as §1

[7] = tested on: P. aeruginosa ATCC27853; assay: Minimum bactericidal concentration (MBC); type: cell-based, Pseudomonas aeruginosa; details: phosphate buffer pH 7.2, 37°C, 3 h, zero colony, triplicate
Description: as §1

[8] = tested on: E. coli ATCC25922; assay: Minimum bactericidal concentration (MBC); type: cell-based, Escherichia coli; details: phosphate buffer pH 7.2, 37°C, 3 h, zero colony, triplicate
Description: as §1

[9] = tested on: A. baumannii ATCC17978; type: cell-based, Acinetobacter baumannii
Description: as §1

[10] = tested on: A. baumannii ATCC19606; assay: Minimum bactericidal concentration (MBC); type: cell-based, Acinetobacter baumannii; details: phosphate buffer pH 7.2, 37°C, 3 h, zero colony, triplicate
Description: as §1

[11] = tested on: A. baumannii ATCC45530; assay: Minimum bactericidal concentration (MBC); type: cell-based, Acinetobacter baumannii; details: A. baumannii ATCC45530 (so in the source); phosphate buffer pH 7.2, 37°C, 3 h; zero colony; triplicate
Description: as §1

[12] = tested on: A. baumannii ATCC46709; assay: Minimum bactericidal concentration (MBC); type: cell-based, Acinetobacter baumannii; details: A. baumannii ATCC46709 (so in the source); phosphate buffer pH 7.2, 37°C, 3 h; zero colony; triplicate
Description: as §1

[13] = treated mice, all tissues; ref Chen et al., 2013; cited from earlier work
From the text: To reduce the cost for D-amino acids in peptide synthesis, we engineered peptides DL-150-177C and LD-150-177C, which contain only approximately 50 ...

[14] = tested on: K. pneumoniae ATCC13884; type: cell-based, Klebsiella pneumoniae
Description: as §1

[15] = tested on: ICR mice; assay: In vivo acute toxicity, survival
Description: (§3) To measure in vivo the acute toxicity, 3-week-old male ICR mice (∼20 g) were purchased from BioLASCO (Taiwan). The mice were randomly separated into 6 groups, and were intraperitoneally injected with D-150-177C at concentrations of 20, 40, 60, and 80 mg/kg. A last-line antibiotic, polymyxin B (20 and 50 mg/kg), was used as a control. Each group contained 5 mice. At 1 day post-injection, blood sample was collected from each mouse. The liver function of mice was determined by measuring the ALT level in the blood. The survival rates of injected mice were monitored for 7 days.
(§4) Polymyxins are the last-line antibiotics, but could be toxic at higher dose. We compared the acute toxicity of peptide D-150-177C with polymyxin B using ICR mice. The mice (∼20 g) were i.p. injected with D-150-177C peptide (20–80 mg/kg body weight). Polymyxin B (50 mg/kg body weight) was used as a control antibiotic. […] In contrast, all mice died of polymyxin B at 50 mg/kg.

[16] = tested on: S. aureus ATCC 19636; assay: Mouse sepsis model, survival; type: in vivo; details: ICR mice
Description: as §2
The mice (∼20 g) were i.p. (intraperitoneally) inoculated with S. aureus ATCC19636 (4 × 10^6 CFU/mouse), followed by treatments with peptides or the PBS control at 2 h post-inoculation. We monitored the survival rate for 7 days (Figure 2B). All mice treated with PBS (10/10) died at day 1 post-inoculation. […] In contrast, administration of L-150-177C peptide at the same dose protected 70% of mice (7/10) from death (p < 0.05). It appears that the C-terminal cysteine is very critical for the in vivo protection as well. Next, we compared the in vivo protection efficacy of HBcARD 150-177C peptides containing either D-form or L-form arginines in this same model. The protection efficacy of peptide L-150-177C was 30% (3/10) at 5 mg/kg, whereas D-150-177C can protect all mice (10/10) from death at the same dose (Figure 2B).

[17] = tested on: colistin-sensitive A. baumannii ATCC17978; assay: Mouse lung infection model, survival; type: in vivo; details: C57BL/6JNarl mice, i.t. colistin-sensitive A. baumannii ATCC17978; i.p. daily for three days; data not shown
[18] = tested on: ICR mice; assay: In vivo acute toxicity, serum ALT (liver injury)
Description: as §3, §4

[19] = S. aureus ATCC19636, 10^6 CFU/ml in 10 mM sodium phosphate, 50 mM NaCl, 37°C, 3 h, plated on MH agar, zero colony, triplicate
[20] = P. aeruginosa ATCC9027, phosphate buffer pH 7.2, 37°C, 3 h, zero colony, triplicate
[21] = A. baumannii ATCC17978, phosphate buffer pH 7.2, 37°C, 3 h, zero colony, triplicate
[22] = S. aureus ATCC19636 4 × 10^6 CFU/mouse i.p., peptide 5 mg/kg at 2 h post-inoculation, 7 days, n = 10/group (Figure 2B)

CC[C@H](C)CCCCC(=O)N[C@@H](CCN)C(=O)N[C@H](C(=O)N[C@@H](CCN)C(=O)N[C@H]1CCNC(=O)[C@H]([C@@H](C)O)NC(=O)[C@H](CCN)NC(=O)[C@H](CCN)NC(=O)[C@H](CC(C)C)NC(=O)[C@@H](CC(C)C)NC(=O)[C@H](CCN)NC1=O)[C@@H](C)O [colistin, reference compound] (X1-[Dab]T[Dab][Dab][Dab][dL]L[Dab][Dab]T; lactam 4-C (inferred); N-terminus assumed)
MIC [1]: around 4 mg/L | survival rate (mice protected from death) ([2]; 5 mg/kg/day i.p. from 2 h): 12.5%

RRRTPSPRRRRSQSPRRRRSC [157-177C]
MBC [3, 19]: > 57.2 µg/mL

RRRGRSPRRRTPSPRRRRSC [150-171C]
MBC [3, 19]: > 57.2 µg/mL

TVVRRRGRSPRRRTPSPRRRRSQSPRRRRSQSRESQC [147-183]
MBC [3, 19]: 18.3 µg/mL | MBC [4]: 18.3 µg/mL | MBC [5]: 18.3 µg/mL | MBC [6, 20]: 9.2 µg/mL | MBC [7]: 9.2 µg/mL | MBC [8]: 18.3 µg/mL | MBC [9, 21]: 2.3 µg/mL | MBC [10]: 2.3 µg/mL | MBC [11]: 2.3 µg/mL | MBC [12]: 4.6 µg/mL | reduction of bacterial burdens in spleen, liver, and blood [13]: approximately 100 fold

NAKDYKGAAAEFPKWNKAGGRVLAGLVKRRKC [LysinC]
MBC ([3]; ATCC19636, 3 h): 128 µg/mL | decrease in MBC relative to parental peptide without C-terminal cysteine ([3]; S. aureus): > 8 fold | MBC ([6]; ATCC9027, 3 h, pH 7.2): 16 µg/mL | decrease in MBC relative to parental peptide without C-terminal cysteine ([6]; P. aeruginosa): 4 fold | decrease in MBC relative to parental peptide without C-terminal cysteine ([9]; A. baumannii): 32 fold | MBC ([9]; ATCC17978, 3 h, pH 7.2): 32 µg/mL | MBC ([14]; ATCC13884, 3 h, pH 7.2): 128 µg/mL | decrease in MBC relative to parental peptide without C-terminal cysteine ([14]; K. pneumonia): > 8 fold

RRRRSQSPRRRRSC [164-177C]
MBC [3, 19]: > 57.2 µg/mL

polymyxin B [reference compound]
survival ([15]; single i.p. 50 mg/kg, 7 days, 5 mice/group): all mice died

RRRGRSPRRRTPSPRRRRSQSPRRRRSC [150-177C]
MBC [3, 19]: 7.1 µg/mL | MBC [4]: 7.1 µg/mL | MBC [5]: 7.1 µg/mL | MBC [6, 20]: 7.1 µg/mL | MBC [7]: 7.1 µg/mL | MBC [8]: 7.1 µg/mL | MBC [9, 21]: 1.8 µg/mL | MBC [10]: 0.9 µg/mL | MBC [11]: 1.8 µg/mL | MBC [12]: 3.6 µg/mL | survival rate [16, 22]: 30% | survival rate ([16]; S. aureus ATCC19636 4 × 10^6 CFU/mouse i.p., peptide 10 mg/kg at 2 h post-inoculation, 7 days, n = 10/group (Figure 2B)): 70%

C[C@@H](O)[C@H](NC(=O)[C@@H](CCCNC(=N)N)NC(=O)[C@@H](CCCNC(=N)N)NC(=O)[C@@H](CCCNC(=N)N)NC(=O)[C@@H]1CCCN1C(=O)[C@H](CO)NC(=O)[C@@H](CCCNC(=N)N)NC(=O)CNC(=O)[C@@H](CCCNC(=N)N)NC(=O)[C@@H](CCCNC(=N)N)NC(=O)[C@H](N)CCCNC(=N)N)C(=O)N1CCC[C@H]1C(=O)N[C@@H](CO)C(=O)N1CCC[C@H]1C(=O)N[C@H](CCCNC(=N)N)C(=O)N[C@H](CCCNC(=N)N)C(=O)N[C@H](CCCNC(=N)N)C(=O)N[C@H](CCCNC(=N)N)C(=O)N[C@@H](CO)C(=O)N[C@@H](CCC(N)=O)C(=O)N[C@@H](CO)C(=O)N1CCC[C@H]1C(=O)N[C@H](CCCNC(=N)N)C(=O)N[C@H](CCCNC(=N)N)C(=O)N[C@H](CCCNC(=N)N)C(=O)N[C@H](CCCNC(=N)N)C(=O)N[C@@H](CO)C(=O)N[C@@H](CS)C(=O)O [D-150-177C] (H-[dR][dR][dR]G[dR]SP[dR][dR][dR]TPSP[dR][dR][dR][dR]SQSP[dR][dR][dR][dR]SC-OH; N-terminus and C-terminus assumed)
survival rate [16, 22]: 100% | survival rate ([16]; S. aureus sepsis, peptide 5 mg/kg at 2 h post-inoculation, n = 10/group, D-arginine substitution comparison (Figure 4)): protected all mice from death | survival rate (mice protected from death) ([2]; 5 mg/kg/day i.p. from 2 h): 62.5% | survival rate (mice protected from death) ([2]; 10 mg/kg/day i.p. from 2 h): 87.5% | survival rate [17]: comparable to that of colistin treatment | LD50 ([15]; i.p., estimated from survival at 20-80 mg/kg): ~75 mg/kg | survival rate ([15]; single i.p. 20 mg/kg, 7 days, 5 mice/group): 100% | survival rate ([15]; single i.p. 40 mg/kg, 7 days, 5 mice/group): 100% | survival rate ([15]; single i.p. 60 mg/kg, 7 days, 5 mice/group): 80% | survival rate ([15]; single i.p. 80 mg/kg, 7 days, 5 mice/group): 40% | ALT level compared with polymyxin B at 20 mg/kg ([18]; i.p. 20 mg/kg, serum at day 1): slight increase | ALT level compared with polymyxin B at 20 mg/kg ([18]; i.p. 40 mg/kg, serum at day 1): slight increase | ALT level compared with polymyxin B at 20 mg/kg ([18]; i.p. 60 mg/kg, serum at day 1, P < 0.01): significantly higher | average ALT value ([18]; i.p. 60 mg/kg, serum at day 1 post-injection): less than 100 IU/L
